Experimental data from ChEMBL document CHEMBL5113537, “Discovery of β-Arrestin-Biased 25CN-NBOH-Derived 5-HT2A Receptor Agonists” (J Med Chem, 2022).
Calls of active or inactive are those of the source. The rule behind the calls is not given here.

How the values were obtained:
[1] = target: 5-hydroxytryptamine receptor 2A (Homo sapiens) (UniProt P28223); experiment: Agonist activity at wild type human 5HT2A transfected in HEK293T cells assessed as beta arrestin-2 recruitment measured for 2 hrs by luminescent assay; format: functional, cell-based; details: filed as agonist
Homo sapiens [2] = organism: Homo sapiens; experiment: (§1) Selectivity ratio of EC50 for agonist activity at human 5HT2A S159A mutant transfected in HEK293T cells assessed as beta arrestin-2 recruitment measured for 2 hrs by luminescent assay to EC50 for agonist activity at human wild type 5HT2A receptor transfected in HEK293T cells assessed as beta arrestin-2 recruitment measured for 2 hrs by luminescent assay; format: cell-based
Homo sapiens [3] = organism: Homo sapiens; experiment: as §1, with “mini Galphaq” for “beta arrestin-2”, “5HT2A” for “5HT2A receptor”; format: cell-based

5-hydroxytryptamine receptor 2A (Homo sapiens), sequence (P28223 whole entry): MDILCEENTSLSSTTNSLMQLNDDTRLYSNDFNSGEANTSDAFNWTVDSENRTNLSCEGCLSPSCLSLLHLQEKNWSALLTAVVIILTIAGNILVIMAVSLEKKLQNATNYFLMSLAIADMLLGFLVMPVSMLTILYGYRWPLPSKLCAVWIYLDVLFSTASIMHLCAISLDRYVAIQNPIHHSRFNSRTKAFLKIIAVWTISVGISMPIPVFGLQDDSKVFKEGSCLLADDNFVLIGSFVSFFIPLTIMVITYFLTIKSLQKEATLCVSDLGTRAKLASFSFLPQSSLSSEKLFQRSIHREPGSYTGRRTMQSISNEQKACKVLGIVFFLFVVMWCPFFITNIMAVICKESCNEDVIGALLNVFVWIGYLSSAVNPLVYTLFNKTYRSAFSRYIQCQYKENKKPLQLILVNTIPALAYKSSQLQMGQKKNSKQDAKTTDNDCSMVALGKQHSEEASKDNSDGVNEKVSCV

| SMILES | Activity [1] | Ratio EC50 (Homo sapiens [2]) | Ratio EC50 (Homo sapiens [3]) |
| --- | --- | --- | --- |
| COc1cc(CCNC2COc3ccccc32)c(OC)cc1C#N (racemic) | Active | – | – |
| COc1cc(CCNCc2ccccc2F)c(OC)cc1C#N | – | 3 | – |
| COc1cc(CCNCc2cccc(O)c2)c(OC)cc1Br | – | 15 | 12 |
